Laboratory results as given in patent publication US20210161880A1, “METHODS FOR TREATING DEMENTIA RELATED PSYCHOSIS” (ACADIA Pharmaceuticals Inc., priority 2019, published 2021).

Assays:
Type in all cases: in vivo, human
[1] = test system: patients with dementia related psychosis; experiment: Open-label period of relapse prevention study of pimavanserin; conditions: for patients meeting response criteria: ≥30% reduction on SAPS-H+D total score and CGI-I score of 1 or 2
Procedure: (§1) A double-blind, placebo-controlled study of the efficacy and safety of pimavanserin was conducted to evaluate relapse prevention in patients with dementia related psychosis. The primary endpoint of this study was time from randomization to relapse in the double-blind period. The secondary endpoint of this study was time from randomization to discontinuation from the double-blind period for any reason.
Male or female patients ≥50 and ≤90 years of age were eligible if they met the criteria for All-cause Dementia according to NIA-AA guidelines. Eligible patients met the clinical criteria for one of the following disorders, with or without cerebrovascular disease (CVD): Dementia associated with Parkinson's disease; Dementia with Lewy bodies; Possible or probable Alzheimer's disease; Frontotemporal degeneration spectrum disorders, including possible or probable behavioral variant frontotemporal dementia, progressive supranuclear palsy, or corticobasal degeneration; or Vascular dementia, including post-stroke dementia, multi-infarct dementia and/or subcortical ischemic vascular dementia (SIVD). […] In addition, eligible patients had all of the following scores at Visit 1 (Screening) and Visit 2 (open-label Baseline): SAPS-H+D total score ≥10; CGI-S ≥4 (moderately ill); and SAPS-H+D global item (H7 or D13) score ≥4 (marked). Patients with a known personal or family history or symptoms of long QT syndrome were excluded.
(§2) The study consisted of a screening period of up to 4 weeks (3-28 days); an open-label period of 12 weeks; a double-blind period of up to 26 weeks; and an approximately 4-week safety follow-up period.
During the open-label period, patients started pimavanserin 34 mg once daily (QD) by mouth beginning at Week 0 (open-label Baseline). Pimavanserin was continued daily at this dose level for at least the first week of treatment. After the first week, if the patient was unable to tolerate the 34 mg dose, the dose was decreased to 20 mg (provided as two 10 mg tablets) at any study visit (scheduled or unscheduled) until Week 4 (Visit 4). If the dose was decreased to 20 mg it may later be increased to 34 mg based on investigator judgment at any study visit (scheduled or unscheduled) until Week 4 (Visit 4). After Week 4 (Visit 4), the dose of study drug remained fixed at either 34 mg or 20 mg once daily.
The response criteria was ≥30% reduction from open-label baseline on SAPS-H+D total score and CGI-I score of 1 or 2. Analysis was restricted to eligible patients at the visit. A patient was eligible for the visit if the number of days between minimum (study discontinuation date, end of treatment date) and the first open-label dose exceeded the lower limit of the analysis visit window for the visit.

[2] = test system: patients with dementia related psychosis; experiment: Double-blind, placebo-controlled period: relapse and all-cause discontinuation; conditions: for Hazard Ratio, relapse / Odds ratio, relapse: vs placebo
Procedure: as §1, §2
Randomization occurred at the double-blind Baseline visit (Week 12). Patients were randomly assigned 1:1 to continue their pimavanserin dose (34 mg or 20 mg) or matching placebo. Randomization was stratified by most likely dementia subtype or most prominent cause of dementia (Alzheimer's disease or frontotemporal dementia spectrum disorders, vascular dementia, or Parkinson's disease dementia or dementia with Lewy bodies) and by region.
Relapse criteria were assessed weekly for the first 2 weeks after randomization (Weeks 13 and 14), every 2 weeks until Week 26, and every 4 weeks through Week 38. Relapse criteria was also evaluated at unscheduled visits. Any patients who met any of the relapse criteria after randomization were withdrawn from study drug and entered the safety follow-up period of the study.

[3] = test system: patients with dementia related psychosis; experiment: Safety and tolerability (MMSE, long-term tolerability)
Procedure: Safety and tolerability of pimavanserin was also evaluated compared to placebo in patients with dementia related psychosis who have been stabilized on pimavanserin therapy. Safety endpoints were: treatment-emergent adverse events (TEAEs); serious adverse events (SAEs); withdrawals due to adverse events (AEs); clinically important changes in other safety assessments; Global Clinician Assessment of Suicidality (GCAS) score; Mini-Mental State Examination (MMSE) score; and Extrapyramidal Symptom Rating Scale (ESRS) score.

[4] = open-label period, Overall N = 351

## CC(C)COc1ccc(CNC(=O)N(Cc2ccc(F)cc2)C2CCN(C)CC2)cc1 [pimavanserin, N-(4-Fluorophenylmethyl)-N-(1-methylpiperidin-4-yl)-N′-(4-(2-methylpropyloxy)phenylmethyl)carbamide]
[1]; across subtypes of dementia, baseline MMSE, baseline dementia severity, FIGS. 4A-C
  psychosis (total SAPS-H+D change), exploratory analysis: substantially reduced psychosis
[1]; by Week 4, FIG. 2A
  patients meeting response criteria: about 50%
[1]; by Week 8, FIG. 2B
  patients meeting response criteria: about 70%
[1]; by Week 12, FIG. 1
  total SAPS-H+D reduction in change from open-label baseline: 75.2%
[1]; by Week 12, overall population and across subtypes of dementia, FIG. 5A, 5B
  CGI-S score reduction from baseline: about 2
[1]; dementia subtypes, baseline MMSE, age, psychosis severity, FIG. 2C-2F
  response rate across subgroups: consistently high response rate
[1]; open label period
  patients demonstrating sustained response: > 60%
[1]; open-label period, AD N = 229
  Early Termination: Adverse Event, (%): (7.9) %
  Early Termination: Lack of Response in Open Label, (%): (20.1) %
  Randomized to Double-blind Period, (%): (59.8) %
[1]; open-label period, DLB N = 22
  Early Termination: Adverse Event, (%): (4.5) %
  Early Termination: Lack of Response in Open Label, (%): (40.9) %
  Randomized to Double-blind Period, (%): (45.5) %
[1]; open-label period, FTD N = 6
  Early Termination: Adverse Event, (%): (16.7) %
  Early Termination: Lack of Response in Open Label, (%): (33.3) %
  Randomized to Double-blind Period, (%): (50) %
[1]; [4]
  Early Termination: Adverse Event, (%): (7.7) %
  Early Termination: Adverse Event, Number: 27
  Early Termination: Death, (%): (0.3) %
  Early Termination: Death, Number: 1
  Early Termination: Lack of Response in Open Label, (%): (19.9) %
  Early Termination: Lack of Response in Open Label, Number: 70
  Randomized to Double-blind Period, (%): (61.8) %
  Randomized to Double-blind Period, Number: 217
[1]; open-label period, PDD N = 59
  Early Termination: Adverse Event, (%): (6.8) %
  Early Termination: Death, (%): (1.7) %
  Early Termination: Lack of Response in Open Label, (%): (15.3) %
  Randomized to Double-blind Period, (%): (71.2) %
[1]; open-label period, VaD N = 35
  Early Termination: Adverse Event, (%): (8.6) %
  Early Termination: Lack of Response in Open Label, (%): (11.4) %
  Randomized to Double-blind Period, (%): (71.4) %
[2]; AD
  Incidence of relapse, (%): 13.1%
  Incidence of relapse, n/N: 8/61
  Hazard Ratio, relapse: 0.618
  Odds ratio, relapse: 0.5175
[2]; Cox regression, 95% CI (0.172, 0.727), one-sided p 0.0023
  Hazard Ratio (Pimavanserin/Placebo), relapse: 0.353
[2]; Cox regression, 95% CI (0.261, 0.785), one-sided p 0.0024
  Hazard Ratio (Pimavanserin/Placebo), all-cause discontinuation: 0.452
[2]; DLB
  Incidence of relapse, (%): 0.0%
  Incidence of relapse, n/N: 0/6
[2]; FTD
  Incidence of relapse, (%): 100%
  Incidence of relapse, n/N: 1/1
[2]; Overall
  Incidence of relapse, (%): 12.6%
  Incidence of relapse, n/N: 12/95
  Hazard Ratio, relapse: 0.353
  Odds ratio, relapse: 0.3666
[2]; PDD
  Incidence of relapse, (%): 6.7%
  Incidence of relapse, n/N: 1/15
  Hazard Ratio, relapse: 0.054
  Odds ratio, relapse: 0.0714
[2]; VaD
  Incidence of relapse, (%): 16.7%
  Incidence of relapse, n/N: 2/12
  Hazard Ratio, relapse: 1.065
  Odds ratio, relapse: 1.00
[2]; double-blind period, FIG. 6
  reduction of risk of relapse of dementia related psychosis (psychotic exacerbation) compared to placebo: 2.8 times
[2]; double-blind period, FIG. 7
  reduction of risk of all-cause discontinuation compared to placebo: 2.2 ×
[2]; double-blind period, N = 95
  Completed Week 26 Without a Relapse, (%): 38.9%
  Number of Patients Discontinued for Any Reason, (%): 22.1%
  Number of Patients Having a Relapse Event, (%): 12.6%
[2]; placebo vs pimavanserin
  patients on placebo more likely to drop out of the trial for any reason: 2.2 times
[3]; 34 mg, given long term in the elderly population
  tolerability: well tolerated
[3]; over 9 months of treatment, FIG. 8
  impact on cognition (MMSE): no negative impact
